Measurements reported in article PMC10045904, “Polyphenol Profile of Cistus × incanus L. and Its Relevance to Antioxidant Effect and α-Glucosidase Inhibition” (Antioxidants, 2023).
Values after ≈ are worked out from the molar mass of the structure shown. Values joined by “and” are separate entries in the source; they are usually repeats but may differ in a detail not shown here. Equal values may be shown once. Read-outs that look alike come from different tables or passages of the source.

Key:
[1] = molecular target: T1, α-glucosidase from Saccharomyces cerevisiae (Saccharomyces cerevisiae, UniProt P53341); assay: α-glucosidase inhibitory assay (p-NPG, 96-well microplate); assay type: biochemical; conditions: pure compound at 500 µg/mL, triplicate
T1 construct: purchased Sigma-Aldrich (Germany)
Experimental: Spectrophotometric measurements were conducted using a Multiskan GO Spectrophotometer (Thermo-Fisher Scientific). The %Inhibition was calculated from the formula % inhibition=(AControl− ASample/AControl )×100
The α-glucosidase inhibitory activity was conducted in a 96-well microplate using 4-nitrophenyl-α-D-glucopyranoside (p-NPG), as reported previously. […] […] The microplate with samples and enzyme solution was initially incubated for 5 min at 37 °C. […] The reaction was allowed to run for 10 min and afterward stopped by adding 50 µL of 0.1 M Na2CO3. The absorbance was measured at 405 nm. All of the samples were tested in triplicate.
(§1) The readings were reduced by absorbance of the sample blanks measured separately for each extract/polyphenol, which consisted of 50 µL of extract diluted in 150 µL of buffer solution only, while values obtained for uninhibited controls were reduced by absorbance values of the buffer solution (buffer blank). The activity was expressed as %inhibition. The half-maximal inhibitory concentration (IC50) values, defined as concentration of inhibitor necessary to reduce the rate of an enzymatic process by 50%, were calculated as follows: IC50=sample concentration ×50/% inhibition

[2] = molecular target: T1, α-glucosidase from Saccharomyces cerevisiae; assay: Kinetics of α-glucosidase inhibition (Lineweaver–Burk, varying inhibitor and p-NPG concentrations); assay type: biochemical; conditions: for Inhibition Type (mode of α-glucosidase inhibition): Lineweaver–Burk plots, p-NPG 1–20 mM, enzyme 0.25 U/mL
Experimental: as §1, with “×50/% inhibition […]” for “×50/% inhibition”
Inhibition modes of α-glucosidase were determined according to Chu et al.. […] After 5 min of preincubation, the addition of the substrate started the reaction, and the changes in absorbance were measured at 30 s intervals. The uninhibited reaction was also run. The reaction was terminated after 10 min, and the absorbance values obtained in the kinetic study were used to create Lineweaver–Burk plots of 1/v against 1/[S].
S3. Ability of α‐glucosidase inhibition by C. incanus
Figure S1. Inhibition of α‐glucosidase by C. incanus extracts at different concentrations.
The absorbance values have been used to determine the changes in Michaelis con‐ stant (Km) and maximum velocity of reaction (Vmax). At first, the change in absorbance over time was converted to absorbance units per minute and then expressed as micromoles of chromogenic product (p‐Np) liberated in the enzymatic reaction in order to determine reaction velocity. The molar extinction coefficient of p‐NP used in the calculation was de‐ termined from its standard curve. The reciprocal of reaction velocity values of each tested compound and extract at different substrate concentrations were then plotted against the reciprocal of substrate concentrations. The intercepts of the created trendlines were uti‐ lized to calculate Km and Vmax values of each enzymatic reaction, and evaluation of altera‐

[3] = design: method as in PMID 35458630, PMID 36673365; conditions: after consumption of ellagitannin-rich foods; cited from earlier work
[4] = read-out: IC50 [µM] α-glucosidase
[5] = read-out: IC50 [µg/mL] α-glucosidase (converted)

T1 sequence (P53341 whole entry): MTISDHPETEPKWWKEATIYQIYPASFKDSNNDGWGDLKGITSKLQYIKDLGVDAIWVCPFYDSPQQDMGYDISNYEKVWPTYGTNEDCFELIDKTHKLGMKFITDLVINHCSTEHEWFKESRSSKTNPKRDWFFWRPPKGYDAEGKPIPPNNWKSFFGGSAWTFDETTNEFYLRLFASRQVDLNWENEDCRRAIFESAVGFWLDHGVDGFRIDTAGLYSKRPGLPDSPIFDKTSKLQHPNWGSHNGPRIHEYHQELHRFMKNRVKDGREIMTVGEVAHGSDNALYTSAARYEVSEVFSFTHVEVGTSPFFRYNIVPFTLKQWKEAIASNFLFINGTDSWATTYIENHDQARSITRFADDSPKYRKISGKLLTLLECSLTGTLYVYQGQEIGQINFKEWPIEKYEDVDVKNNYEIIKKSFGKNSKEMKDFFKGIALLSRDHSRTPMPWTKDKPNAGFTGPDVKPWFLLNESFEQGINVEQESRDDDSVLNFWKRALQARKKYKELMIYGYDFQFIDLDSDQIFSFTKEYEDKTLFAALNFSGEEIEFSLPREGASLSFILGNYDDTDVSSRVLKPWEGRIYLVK

Row | Molecule | inhibition at 500 µg/mL [1] | Inhibition Type (mode of α-glucosidase inhibition) [2] | IC50 [2, 4] | IC50 [2, 5] | absorption into the bloodstream [3] | α-glucosidase %inhibition [1] | IC50 [µg/mL] α-glucosidase [2] | IC50 ([2]; listed as cistusin, read-out: IC50 [µM] α-glucosidase)
1 | O=C1O[C@H]2[C@@H]3OC(=O)c4cc(O)c(O)c(O)c4-c4c(O)c(O)c5oc(=O)c6c(c(O)c(O)c7oc(=O)c4c5c76)-c4c(cc(O)c(O)c4O)C(=O)OC[C@H]3OC(O)[C@@H]2OC(=O)c2cc(O)c(O)c(O)c2-c2c1cc(O)c(O)c2O (mixture of isomers) [Punicalagin, punicalagin] | > 70% | competitive | 1.1 µM and 1.14 µM | 1.13 µM | not absorbed into the bloodstream |  |  | 
2 | O=C1OC[C@H]2OC(O)[C@H](O)[C@@H](O)[C@@H]2OC(=O)c2cc(O)c(O)c(O)c2-c2c(O)c(O)c3oc(=O)c4c(c(O)c(O)c5oc(=O)c2c3c54)-c2c1cc(O)c(O)c2O (mixture of isomers) [punicalin] |  |  |  |  | not absorbed into the bloodstream |  |  | 
3 | C[C@H]1O[C@H](O[C@H]2[C@H](O)[C@@H](O)[C@@H](O[C@H]3[C@H](O)[C@@H](O)C(O)O[C@@H]3CO)O[C@@H]2CO)[C@H](O)[C@@H](O)[C@@H]1N[C@H]1C=C(CO)[C@@H](O)[C@H](O)[C@H]1O (some centres unmarked) [Acarbose, acarbose, reference compound] | 13.7% | competitive |  |  |  |  |  | 
4 | O=c1oc2c(O)c(O)cc3c(=O)oc4c(O)c(O)cc1c4c23 [Ellagic acid, ellagic acid] | > 70% | mixed | 11 µM and 10.8 µM | 10.8 µM |  | 81.9% |  | 
5 | O=C(O)c1cc(O)c(O)c(O)c1 [Gallic acid, gallic acid] | > 70% | mixed | 686 µM | 688 µM and 686 µM |  | 82.8% |  | 
6 | O=C(OC[C@H]1OC(O)[C@@H]2OC(=O)c3cc(O)c(O)c(O)c3-c3c(cc(O)c(O)c3O)C(=O)O[C@H]2[C@@H]1OC(=O)c1cc(O)c(O)c(O)c1-c1c(O)c(O)c2oc(=O)c3cc(O)c(O)c4oc(=O)c1c2c43)c1cc(O)c(O)c(O)c1 (some centres unmarked) [Terflavin A, terflavin A] |  | mixed | 1.1 µM |  |  | > 70% | 1.19 µg/mL (≈ 1.1 µM) | 
7 | O=C(/C=C/c1ccc(O)cc1)OC[C@H]1O[C@@H](Oc2c(-c3ccc(O)cc3)oc3cc(O)cc(O)c3c2=O)[C@H](O)[C@@H](O)[C@@H]1O [Tiliroside, kaempferol-3-O-β-(6″-O-p-coumaroyl)glucoside] | > 70% | mixed | 283 µM | 283 µM |  | 73.6% |  | 
8 | O=c1c(O[C@@H]2O[C@H](CO)[C@H](O)[C@H](O)[C@H]2O)c(-c2ccc(O)c(O)c2)oc2cc(O)cc(O)c12 [hyperoside, quercetin-3-O-β-galactoside] | 26% |  |  |  |  |  |  | 
9 | O=c1c(O)c(-c2ccc(O)cc2)oc2cc(O)cc(O)c12 [kaempferol] | 17.6% |  |  |  |  |  |  | 
10 | O=c1c(O)c(-c2ccc(O)c(O)c2)oc2cc(O)cc(O)c12 [quercetin] | 30 to 40% |  |  |  |  |  |  | 
11 | Cistusin |  | mixed | 0.66 µM |  |  | > 70% | 0.83 µg/mL | 0.7 µM
